Laboratory results published in patent US11174245B2, “Benzimidazole compounds and derivatives as EGFR inhibitors” (Boehringer Ingelheim International GmbH, priority 2018, dated 2021).
pIC50: −log10 of the molar value. Like-named read-outs stand apart in the source and are kept apart here.

Experiments:
[1] = biological target: EGFR (mutated) 695-1022, T790M, C797S, L858R (Homo sapiens (Human), UniProt P00533, C797S/L858R/T790M); test: Biochemical EGFR inhibition assay (TR-FRET, poly-GT substrate), EGFR T790M C797S L858R
Sequence of EGFR (mutated) 695-1022, T790M, C797S, L858R (P00533 695-1022 T790M/C797S/L858R): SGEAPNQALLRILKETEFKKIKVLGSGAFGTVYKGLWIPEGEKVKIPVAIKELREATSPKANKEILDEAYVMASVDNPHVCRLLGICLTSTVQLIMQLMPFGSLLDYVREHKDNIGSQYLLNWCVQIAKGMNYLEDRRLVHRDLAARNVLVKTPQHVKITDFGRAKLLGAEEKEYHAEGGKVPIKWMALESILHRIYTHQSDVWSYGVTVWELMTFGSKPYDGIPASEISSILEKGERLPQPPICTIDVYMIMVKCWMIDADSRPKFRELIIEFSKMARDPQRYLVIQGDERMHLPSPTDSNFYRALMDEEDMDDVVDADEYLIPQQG
Procedure: (§1) Biochemical EGFR Inhibition Assays
(§2) Initially, the inhibitory effect of compounds according to the invention is measured in biochemical assays which measure the phosphorylation activity of EGFR enzyme forms on poly-GT substrate in the presence of different concentrations of ATP (5 μM and 100 μM final assay concentration).
(§3) The following enzyme forms of EGFR are representative examples that can be used in these assays at the given concentrations:
(§4) For the chosen highest assay concentration of 100 μM, 150 nL of compound solution is transferred from a 10 mM DMSO compound stock solution. A series of eleven fivefold dilutions per compound is transferred to the assay plate, compound dilutions are tested in duplicates. DMSO is added as backfill to a total volume of 150 nL. The assay runs on a fully automated robotic system.
(§5) These biochemical EGFR enzyme form compound dose-response assays quantify the kinase activity via phosphorylation of a tagged poly-GT substrate. The results of the assay are provided as IC50 values.

EGFR wt = EGFR wt (Homo sapiens (Human), UniProt P00533); test: Biochemical EGFR inhibition assay (TR-FRET, poly-GT substrate), EGFR wt
Sequence of EGFR wt (P00533 25-1210): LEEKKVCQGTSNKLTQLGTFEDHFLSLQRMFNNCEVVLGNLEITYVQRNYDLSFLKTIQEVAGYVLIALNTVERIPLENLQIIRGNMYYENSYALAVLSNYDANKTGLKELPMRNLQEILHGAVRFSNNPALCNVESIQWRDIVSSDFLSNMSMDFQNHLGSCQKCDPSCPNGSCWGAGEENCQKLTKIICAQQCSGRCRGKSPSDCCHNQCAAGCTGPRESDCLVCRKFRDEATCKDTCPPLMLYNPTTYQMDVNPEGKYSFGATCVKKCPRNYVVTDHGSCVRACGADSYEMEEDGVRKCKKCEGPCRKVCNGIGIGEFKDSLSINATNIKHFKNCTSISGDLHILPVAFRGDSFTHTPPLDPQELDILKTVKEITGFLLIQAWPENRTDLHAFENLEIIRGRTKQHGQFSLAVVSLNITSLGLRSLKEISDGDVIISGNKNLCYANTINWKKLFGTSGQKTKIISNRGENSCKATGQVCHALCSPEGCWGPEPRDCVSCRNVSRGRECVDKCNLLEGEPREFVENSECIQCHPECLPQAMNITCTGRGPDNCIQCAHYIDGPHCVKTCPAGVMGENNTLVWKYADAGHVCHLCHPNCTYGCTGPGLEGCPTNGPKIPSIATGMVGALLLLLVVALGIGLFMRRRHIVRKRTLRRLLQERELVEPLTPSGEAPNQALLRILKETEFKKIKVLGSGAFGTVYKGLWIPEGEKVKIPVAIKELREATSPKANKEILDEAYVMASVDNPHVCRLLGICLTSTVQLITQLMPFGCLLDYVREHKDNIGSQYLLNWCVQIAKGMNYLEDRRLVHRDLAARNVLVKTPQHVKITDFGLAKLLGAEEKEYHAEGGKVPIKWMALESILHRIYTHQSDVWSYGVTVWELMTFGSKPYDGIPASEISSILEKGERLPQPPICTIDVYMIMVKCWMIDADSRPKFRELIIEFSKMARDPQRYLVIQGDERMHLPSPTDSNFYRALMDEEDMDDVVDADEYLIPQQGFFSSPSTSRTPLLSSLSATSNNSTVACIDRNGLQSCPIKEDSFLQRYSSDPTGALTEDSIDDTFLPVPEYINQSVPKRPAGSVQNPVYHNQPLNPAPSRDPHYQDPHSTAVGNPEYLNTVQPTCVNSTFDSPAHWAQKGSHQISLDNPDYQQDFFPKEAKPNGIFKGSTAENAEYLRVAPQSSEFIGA
Procedure: as §1, §2, §3, §4, §5

[2] = biological target: EGFR del19 T790M C797S protein in Ba/F3 cells (Homo sapiens, UniProt P00533, C797S/DEL746-750/T790M); test: pEGFR assay (AlphaScreen Surefire, EGFR Tyr1068 phosphorylation); assay type: cell-based
Sequence of EGFR del19 T790M C797S protein in Ba/F3 cells (P00533 with tags, fused parts or gaps C797S/DEL746-750/T790M limits assumed): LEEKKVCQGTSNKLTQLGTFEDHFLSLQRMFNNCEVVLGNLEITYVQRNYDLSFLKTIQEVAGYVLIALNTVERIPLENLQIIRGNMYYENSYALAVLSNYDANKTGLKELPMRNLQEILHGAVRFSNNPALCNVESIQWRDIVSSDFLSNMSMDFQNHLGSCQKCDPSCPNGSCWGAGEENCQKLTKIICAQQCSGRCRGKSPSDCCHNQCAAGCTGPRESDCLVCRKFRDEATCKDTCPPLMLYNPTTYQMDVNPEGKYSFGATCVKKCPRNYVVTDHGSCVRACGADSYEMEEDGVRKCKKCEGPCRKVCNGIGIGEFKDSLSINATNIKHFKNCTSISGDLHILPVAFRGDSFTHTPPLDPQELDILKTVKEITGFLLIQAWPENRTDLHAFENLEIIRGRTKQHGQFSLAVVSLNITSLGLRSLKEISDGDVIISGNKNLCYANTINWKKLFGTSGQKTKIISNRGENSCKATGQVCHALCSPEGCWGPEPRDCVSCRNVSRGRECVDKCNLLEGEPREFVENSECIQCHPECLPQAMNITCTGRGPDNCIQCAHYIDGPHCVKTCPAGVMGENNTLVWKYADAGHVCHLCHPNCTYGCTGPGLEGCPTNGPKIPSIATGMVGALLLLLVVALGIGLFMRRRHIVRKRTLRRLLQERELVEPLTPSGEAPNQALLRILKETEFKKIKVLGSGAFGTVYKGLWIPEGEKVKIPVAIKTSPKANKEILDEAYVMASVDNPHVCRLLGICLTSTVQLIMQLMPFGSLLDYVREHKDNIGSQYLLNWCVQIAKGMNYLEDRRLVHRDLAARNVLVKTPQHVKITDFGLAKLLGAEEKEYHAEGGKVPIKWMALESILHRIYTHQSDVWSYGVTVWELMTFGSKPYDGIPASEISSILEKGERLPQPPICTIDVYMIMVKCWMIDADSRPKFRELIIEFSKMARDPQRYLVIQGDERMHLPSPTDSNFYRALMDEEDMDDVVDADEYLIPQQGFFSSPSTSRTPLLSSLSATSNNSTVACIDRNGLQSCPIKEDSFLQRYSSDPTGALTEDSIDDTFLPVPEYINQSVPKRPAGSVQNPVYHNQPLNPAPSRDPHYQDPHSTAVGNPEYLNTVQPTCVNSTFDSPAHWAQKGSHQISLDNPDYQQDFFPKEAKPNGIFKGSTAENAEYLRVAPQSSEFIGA
Procedure: Transduced cells were selected using puromycin. Following selection, IL-3 was withdrawn and IL-3 independent cells cultured. p-EGFR Tyr1068 was determined using the AlphaScreen Surefire pEGF Receptor (Tyr1068) Assay (PerkinElmer, TGRERS). […] Subsequently, 60.000 cells/well in 60 μL were added. Cells were incubated with compound for 4 h at 37° C. […] The mixture was incubated at room temperature with shaking (700 rpm) for 20 min. After centrifugation, 4 μL of the lysate were transferred to Proxiplates. […] Plates were shaken for 1 min (1400 rpm) and incubated for 2 h at room temperature in the dark.
The results of the assay are provided as IC50 values (see table 12).

[3] = read-out: LR_TM_CS (5 μM ATP) IC50, 5 μM ATP
[4] = read-out: wt (5 μM ATP) IC50, 5 μM ATP
[5] = read-out: LR_TM_CS (100 μM ATP) IC50, 100 μM ATP
[6] = read-out: wt (100 μM ATP) IC50, 100 μM ATP

SMILES | pIC50 [2] | further results
Cc1cc(C(=O)/N=c2\[nH]c3ccc(CN4CCN(C)CC4)cc3n2CC(C)(C)O)cc(-c2cnn(C)c2)n1 [I-214] | 7.42 | pIC50 [1, 3]: 8.00; pIC50 (EGFR wt; [4]): 5.02
Cc1cc(C(=O)/N=c2\[nH]c3ccccc3n2C2CCCS(=O)(=O)C2)cc(-c2cnn(C)c2)n1 (stereo not drawn) [I-217] | 7.12 | pIC50 [1, 3]: 7.48; pIC50 (EGFR wt; [4]): < 4.00
CN(C)Cc1cccc(-c2cc(C(=O)/N=c3\[nH]c4ccccc4n3[C@H]3CC[C@@H](O)CC3)ccn2)c1 [I-114] | 8.70 | pIC50 [1, 5]: 7.73; pIC50 (EGFR wt; [6]): 5.18
O=C(/N=c1\[nH]c2ccccc2n1[C@H]1CC[C@@H](O)CC1)c1ccnc(-c2cccc(F)c2)c1 [I-185] | 7.64 | pIC50 [1, 3]: 7.45; pIC50 (EGFR wt; [4]): 5.49
COc1ccc(F)cc1-c1cc(C(=O)/N=c2\[nH]c3ccccc3n2[C@H]2CC[C@@H](O)CC2)ccn1 [I-157] | 8.30 | pIC50 [1, 3]: 8.34; pIC50 (EGFR wt; [4]): 7.15
Cn1cc(-c2cc(C(=O)/N=c3\[nH]c4cc(C5CCN(C6CC6)CC5)ccc4n3CC(C)(C)O)ccn2)cn1 [I-042] | 8.52 | pIC50 [1, 5]: 7.61; pIC50 (EGFR wt; [6]): 4.84
COc1ccccc1-c1cc(C(=O)/N=c2\[nH]c3cc(C4CCN(C(C)=O)C4)ccc3n2CC(C)(C)O)ccn1 (stereo not drawn) [I-158] | 8.22 | pIC50 [1, 3]: 8.82; pIC50 (EGFR wt; [4]): 7.25
Cc1ccc2c(c1)[nH]/c(=N\C(=O)c1ccnc(-c3cccc(CN(C)C)c3)c1)n2[C@H]1CC[C@@H](O)CC1 [I-111] | 8.40 | pIC50 [1, 5]: 7.99; pIC50 (EGFR wt; [6]): 5.15
O=C(/N=c1\[nH]c2ccccc2n1[C@H]1CC[C@@H](O)CC1)c1ccnc(-c2cnn(C(F)F)c2)c1 [I-201] | 8.70 | pIC50 [1, 3]: 8.92; pIC50 (EGFR wt; [4]): 6.64
COc1ccccc1-c1cc(C(=O)/N=c2\[nH]c3ccccc3n2[C@H]2CCC[C@H](O)C2)ccn1 [I-170] | 8.10 | –
Cn1cc(-c2cc(C(=O)/N=c3\[nH]c4cc(NCCN5CCCC5)ccc4n3CC(C)(C)O)ccn2)cn1 [I-83] | 7.85 | –
COc1ccccc1-c1cc(C(=O)/N=c2\[nH]c3cc(C4CCN(C)CC4)ccc3n2[C@H]2CC[C@@H](O)CC2)ccn1 [I-124] | 8.70 | –
Cn1cc(-c2cc(C(=O)/N=c3\[nH]c4cc(C(C)(C)O)ccc4n3CC(C)(C)O)ccn2)cn1 [I-063] | 7.13 | –
COc1ccccc1-c1cc(C(=O)/N=c2\[nH]c3cc(CN4CC[C@H](OC)C4)ccc3n2[C@H]2CC[C@@H](O)CC2)ccn1 [I-151] | 8.40 | –
Cn1cc(-c2cc(C(=O)/N=c3\[nH]c4cc(C5CCOCC5)ccc4n3CC(C)(C)O)ccn2)cn1 [I-85] | 8.52 | –
O=C(/N=c1\[nH]c2ccccc2n1[C@H]1CC[C@@H](O)CC1)c1ccnc(-n2ccc3cccnc32)c1 [I-150] | 8.40 | –
Cn1cc(-c2cc(C(=O)/N=c3\[nH]c4cc(C5CCNCC5)ccc4n3[C@H]3CC[C@@H](O)CC3)ccn2)cn1 [I-218] | 7.74 | –
COc1ccccc1-c1cc(C(=O)/N=c2\[nH]c3cc(CN4CCCCC4)ccc3n2CC(C)(C)O)ccn1 [I-059] | 8.52 | –
COCCCNc1cc2[nH]/c(=N\C(=O)c3ccnc(-c4cnn(C)c4)c3)n(CC(C)(C)O)c2cc1C [I-71] | 7.07 | –
O=C(/N=c1\[nH]c2ccccc2n1[C@H]1CC[C@@H](O)CC1)c1ccnc(-c2cccc3ccnn23)c1 [I-89] | 8.10 | –
C[C@@H]1CN(c2ccc3c(c2)[nH]/c(=N\C(=O)c2ccnc(-c4cnn(C)c4)c2)n3CC(C)(C)O)C[C@H](C)N1C [I-73] | 7.09 | –

SMILES | pIC50 [2] | further results
Cn1cc(-c2cc(C(=O)/N=c3\[nH]c4cc(NCC5CCOCC5)ccc4n3CC(C)(C)O)ccn2)cn1 [I-68] | 7.85 | –
Cn1cc(-c2cc(C(=O)/N=c3\[nH]c4cc(C5CCOC5)ccc4n3CC(C)(C)O)ccn2)cn1 (stereo not drawn) [I-86] | 8.30 | –
Cn1cc(-c2cc(C(=O)/N=c3\[nH]c4cc(CN5CCOCC5)ccc4n3CC(C)(C)O)ccn2)cn1 [I-058] | 7.03 | –
Cn1cc(-c2cc(C(=O)/N=c3\[nH]c4ccccc4n3[C@H]3CC[C@@H](O)CC3)cc(F)n2)cn1 [I-133] | 9.00 | –
O=C(/N=c1\[nH]c2ccccc2n1[C@H]1CC[C@@H](O)CC1)c1ccnc(-c2ccccc2OC(F)(F)F)c1 [I-187] | 7.62 | –
Cn1cc(-c2cc(C(=O)/N=c3\[nH]c4ccccc4n3[C@H]3COCC[C@@H]3O)ccn2)cn1 [I-190] | 7.48 | –
Cc1cc2c(cc1N1CCCCC1)[nH]/c(=N\C(=O)c1ccnc(-c3cnn(C)c3)c1)n2CC(C)(C)O [I-70] | 7.03 | –
COCCN1CCC(c2ccc3c(c2)[nH]/c(=N\C(=O)c2ccnc(-c4cnn(C)c4C)c2)n3CC(C)(C)O)CC1 [I-045] | 8.70 | –
Cn1cc(-c2cc(C(=O)/N=c3\[nH]c4ccccc4n3C3CCCOC3)ccn2)cn1 (stereo not drawn) [I-043] | 8.22 | –
Cn1cc(-c2cc(C(=O)/N=c3\[nH]c4cc(NC[C@@H]5CCCO5)ccc4n3CC(C)(C)O)ccn2)cn1 [I-81] | 8.05 | –
COc1ccccc1-c1cc(C(=O)/N=c2\[nH]c3ccccc3n2[C@H]2CCC[C@@H](O)C2)ccn1 [I-127] | 8.70 | –
COc1ncccc1-c1cc(C(=O)/N=c2\[nH]c3ccccc3n2[C@H]2CC[C@@H](O)CC2)ccn1 [I-173] | 8.05 | –
COc1ccccc1-c1cc(C(=O)/N=c2\[nH]c3ccccc3n2[C@H]2CCC[C@H](O)C2)ccn1 [I-119] | 8.52 | –
COc1ccccc1-c1cc(C(=O)/N=c2\[nH]c3ccccc3n2[C@@H]2CCC[C@@H](O)C2)ccn1 [I-139] | 8.70 | –
CN(C)C1CCN(c2ccc3c(c2)[nH]/c(=N\C(=O)c2ccnc(-c4cnn(C)c4)c2)n3CC(C)(C)O)C1 (stereo not drawn) [I-80] | 7.05 | –
COCCN1CCC(c2ccc3c(c2)[nH]/c(=N\C(=O)c2ccnc(-c4cccnc4)c2)n3CC(C)(C)O)CC1 [I-046] | 8.70 | –
COc1ccccc1-c1cc(C(=O)/N=c2\[nH]c3ccccc3n2[C@H]2COCC[C@@H]2O)ccn1 [I-155] | 8.30 | –
Cn1cc(-c2cc(C(=O)/N=c3\[nH]c4ccccc4n3C3CCOCC3)ccn2)cn1 [I-049] | 8.15 | –
CC(C)c1ccc2c(c1)[nH]/c(=N\C(=O)c1ccnc(-c3cnn(C)c3)c1)n2CC(C)(C)O [I-062] | 8.05 | –
CN1CCN(c2ccc3[nH]/c(=N\C(=O)c4cc(F)nc(-c5cnn(C)c5)c4)n(C4CCCCC4)c3c2)CC1 [I-232] | 9.00 | –

Second part, led by results:

pIC50 [2] | SMILES | further results
7.12 | CNC(=O)c1cccc(-c2cc(C(=O)/N=c3\[nH]c4ccccc4n3CC(C)(C)O)ccn2)c1 [I-100] | –
7.80 | CC(C)(O)Cn1/c(=N/C(=O)c2ccnc(-c3cccnc3)c2)[nH]c2cc(CO)ccc21 [I-067] | –
7.04 | CNC(=O)Cc1ccc2c(c1)[nH]/c(=N\C(=O)c1ccnc(-c3cccnc3)c1)n2CC(C)(C)O [I-131] | –
9.00 | CC(C)(O)Cn1/c(=N/C(=O)c2ccnc(-c3cnc4cccnn34)c2)[nH]c2ccccc21 [I-041] | –
7.13 | Cn1cnc2c(-c3cc(C(=O)/N=c4\[nH]c5ccccc5n4CC(C)(C)O)ccn3)cccc21 [I-95] | –
7.64 | CC(C)(O)Cn1/c(=N/C(=O)c2ccnc(-c3cccnc3)c2)[nH]c2cc(Cl)ccc21 [I-066] | –
7.52 | CC(C)(O)Cn1/c(=N/C(=O)c2ccnc(-n3ccc4cccnc43)c2)[nH]c2ccccc21 [I-188] | –
8.05 | CNc1ccc2c(c1)[nH]/c(=N\C(=O)c1ccnc(-c3cnn(C)c3)c1)n2CC(C)(C)O [I-172] | –
8.15 | CCc1ccc2c(c1)[nH]/c(=N\C(=O)c1ccnc(-c3cnn(C)c3)c1)n2CC(C)(C)O [I-061] | –
7.68 | CCc1ccc2[nH]/c(=N\C(=O)c3ccnc(-c4cccnc4)c3)n(CC(C)(C)O)c2c1 [I-84] | –
7.26 | CC(C)(O)Cn1/c(=N/C(=O)c2ccnc(-c3cnccc3Cl)c2)[nH]c2ccccc21 [I-027] | –
7.96 | Cn1ncc2c(-c3cc(C(=O)/N=c4\[nH]c5ccccc5n4CC(C)(C)O)ccn3)cccc21 [I-88] | –
7.38 | CN(C)c1ccc2c(c1)[nH]/c(=N\C(=O)c1ccnc(-c3cccnc3)c1)n2CC(C)(C)O [I-79] | –
7.00 | CN(C)c1cccc(-c2cc(C(=O)/N=c3\[nH]c4ccccc4n3CC(C)(C)O)ccn2)c1 [I-94] | –
7.92 | CC(C)(O)Cn1/c(=N/C(=O)c2ccnc(-c3cccc(O)c3)c2)[nH]c2ccccc21 [I-104] | –
8.40 | COc1cnccc1-c1cc(C(=O)/N=c2\[nH]c3ccccc3n2[C@H]2CC[C@@H](O)CC2)ccn1 [I-147] | –
7.62 | CC(C)(O)Cn1/c(=N/C(=O)c2ccnc(-c3ccsc3)c2)[nH]c2ccccc21 [I-050] | –
7.38 | COc1cccc(-c2cc(C(=O)/N=c3\[nH]c4ccccc4n3CC(C)(C)O)ccn2)c1 [I-99] | –
7.70 | COc1ncccc1-c1cc(C(=O)/N=c2\[nH]c3ccccc3n2CC(C)(C)O)ccn1 [I-92] | –
